PMC10622577, “Structural basis for stabilisation of the RAD51 nucleoprotein filament by BRCA2” (Nature Communications, 2023)

Tests used:
[1] = molecular target: RAD51; test: SPR Kd estimation of TR2 for wild-type and mutant RAD51; format: binding, human; settings: no binding saturation, large confidence intervals, statistically unreliable, no numbers given
Description: (§1) All binding experiments were performed in CMA buffer: 25 mM HEPES pH 7.4, 100 mM NaCl, 2 mM DTT, 2 mM ATP, 5 mM CaCl2, 5 mM MgCl2. 1 μM RAD51 (wild-type, D184A or D184A, D187A mutant proteins) was injected for 120 seconds followed by buffer for 120 seconds at a flow rate of 10 μl/min. TR2 or BRC4 peptides were then injected in a concentration titration series of 0.1, 0.25, 0.5, 0.75, 1, 2, 3, 5, 7.5, 10 and 15 μM for 120 seconds at a flow rate of […] followed by a dissociation time of 240 seconds. After each injection of BRCA2 peptide, the sensor chip was regenerated with buffer comprising of CMA buffer with 1 M NaCl for 120 seconds at a flow rate of 100 μl/min. All experiments were performed in triplicate.
(§2) For the BRCA2 TR2 titration series, blank-subtracted sensorgrams were used to extract the maximum response accumulated after each TR2 injection. TR2 response accumulation was corrected to account for differences in RAD51 filament formation between runs, by multiplying the maximum response by a scale factor calculated as the ratio between mean RAD51 filament accumulation on each DNA substrate and the mean RAD51 accumulated for each mutant for each triplicate. […]
(§3) consequently the need to inject the TR2 peptide at high concentrations (>30 uM), which would change sample viscosity and affect the refractive index for detection. The Kd values that we obtained based on the measured […]

[2] = molecular target: T1, RAD51 (Homo sapiens, UniProt Q06609); test: as above; format: binding; settings: saturation not achieved, would need >30 uM TR2
T1 construct: made in house; host or cells: E. coli BL21(DE3)Rosetta2
T1 sequence (Q06609 2-339): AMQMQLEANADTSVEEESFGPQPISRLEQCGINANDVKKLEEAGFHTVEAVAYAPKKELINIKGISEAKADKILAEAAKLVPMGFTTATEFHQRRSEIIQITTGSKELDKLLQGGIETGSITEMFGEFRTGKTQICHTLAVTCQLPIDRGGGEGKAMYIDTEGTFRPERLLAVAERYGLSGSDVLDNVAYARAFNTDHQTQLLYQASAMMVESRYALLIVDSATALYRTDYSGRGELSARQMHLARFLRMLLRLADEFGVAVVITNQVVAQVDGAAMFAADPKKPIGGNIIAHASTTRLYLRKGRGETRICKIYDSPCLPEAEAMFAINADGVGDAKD
Description: as §1, §2, §3

DDQKNCKKRRALDFLSRLPLPPPVSPICTFVSPAAQKAFQPPRSCGTKY [TR2, BRCA2 TR2 peptide spanning amino acids 3260 to 3308]
Kd trend, wild-type versus mutant RAD51 [1]: KdwtRAD51 < KdmutRAD51
affinity of TR2 for RAD51 [2]: relatively low affinity
